Assay results: patent US20230277536A1, “METHODS AND COMPOSITIONS FOR TREATING EWING FAMILY OF TUMORS” (priority 2021, published 2023)

Assays:
A673 cell line = assay: In vitro cell proliferation assay (EdU labeling, high-content screening); type: cell-based; conditions: A673, EWSR1-FLI1 translocation; 72 hrs exposure, 2-fold dilutions from 200 nM; FIG. 1A
Protocol: (§1) In vitro cell proliferation assays were performed to test the sensitivity of Ewing tumor cell lines to treatment with YM155. The A673 and SK-N-MC cell lines, each of which have the EWSR1-FLI1 translocation that is characteristic of most cases of Ewing tumors, were seeded in 96-well plates at 2×10^3 cells/well and allowed to attach overnight at 37° C. and 5% CO2. The cells were exposed to YM155 at designated concentrations (2-fold serial dilutions starting from 200 nM) for 72 hrs.
(§2) Following drug exposure, the cells were labeled with 5-ethynyl-2′- deoxyuridine (EdU) to assess the tumor cell proliferation rates. The labeling lasted 4 hours in the presence of drug exposure. […]
(§3) The labeled cells were fixed with formaldehyde for 30 min, followed by staining with Hoechst 33342 in a buffer containing 0.5% triton X-100. The incorporated Edu was detected by Click-iT reaction where fixed cells were incubated with a reaction mixture containing 1X Click-iT EdU reaction buffer, CuSO4, and azide-conjugated fluorescent dye in the dark. […]
(§4) The stained tumor cells were imaged by a high-content screening (HCS) platform (Thermo Scientific Cellomics Array Scan XTi HCS reader). […] From the images fluorescent signals for cell nucleus and the EdU incorporated in newly synthesized DNA were obtained from the HCS reader. […] The IC50 was calculated from the dose response curve of drug inhibition.

SK-N-MC cell line = assay: as above; type: cell-based; conditions: EWSR1-FLI1 translocation, 72 hrs exposure, 2-fold dilutions from 200 nM, FIG. 1B
Protocol: as §1, §2, §3, §4

A673 cells = assay: Apoptosis assays (Annexin V/PI and caspase 3 activity, flow cytometry); type: cell-based; conditions: 10 nM, 3 days drug exposure, vs DMSO, FIGS. 2A-2D
Protocol: (§5) Cellular apoptosis was then assayed with the Alexa Fluor™ 488 Annexin V/Dead cell apoptosis Kit (ThermoFisher®, USA) and GreenNuc™ live cell caspase 3 activity assay kit (Beyotime Biotechnology, China). Briefly, cells cultured in 6-well tissue culture plates were treated with 10 nM YM155 or DMSO (control). Following 3 days drug exposure, the cells were collected and assayed for apoptosis according to the manufacturers' instructions. For annexin V assay, the cell suspensions were incubated with Alexa Flour™ 488 labeled annexin V and Propidium Iodide (PI). For the caspase 3 activity assay, a caspase 3 substrate was added to generate fluorescent product. The cells were then analyzed on a BD LSR Fortessa cell analyzer. Flow cytometry data was analyzed with Flowjo software.

SK-N-MC cells = assay: as above; type: cell-based; conditions: 10 nM, 3 days drug exposure, vs DMSO, FIGS. 3A-3D
Protocol: as §5

EWS-FLI1 = assay: Western-blot analysis of EWS-FLI1 expression level; type: cell-based; conditions: A673 and SK-N-MC cells, 10 nM, 12-48 hrs; FIG. 5
Protocol: (§6) Western-blot analysis was performed to examine the suppression by YM155 on the expression level of EWS-FLI1, the protein product of EWSR1-FLI1 translocation, and its effector proteins MYC and cyclin D1. In brief, A673 and SK-N-MC cells seeded on 6-well plates were treated with 10 nM YM155 for 12-48 hrs. The cells were then harvested and lysed in a lysis buffer containing protease inhibitor cocktail (Beyotime, China) at 4C. The concentrations of total protein in the cell lysates were determined by BCA Protein Assay Kit (ThermoFisher, USA). Forty micrograms of total protein was used in each lane for SDS-PAGE and western-blot assay. Antibodies against EWS-FLI1, MYC, and cyclin D1 were used to detect the expression levels of the proteins. GAPDH was used as a loading control.

MYC = assay: Western-blot analysis of MYC expression level; type: cell-based; conditions: A673 and SK-N-MC cells, 10 nM, 12-48 hrs; FIG. 5
Protocol: as §6

A673 xenograft = assay: Murine A673 xenograft Ewing tumor model
Protocol: The dosing schedules in FIG. 4B are as follows: YM155 monobromide, 3.5 mg/kg, 21-day-infusion with an osmotic pump; vincristine, 0.5 mg/kg, QW*3, IV; doxorubicin, 3.3 mg/kg, QW*3, IV; cyclophosphamide, 40 mg/kg, QW*3, IV. The dosing schedules in FIG. 4B are as follows: YM155 monobromide, 2 mg/kg, 21-day-infusion with an osmotic pump; ifosfamide, 30 mg/kg, QW*3, IV; etoposide, 7.5 mg/kg, QW*3, IP. […] The dosing schedules were as follows: YM155 monobromide, 3.5 mg/kg, 21-day-infusion with an osmotic pump; vincristine, 0.5 mg/kg, QW*3, IV; doxorubicin, 3.3 mg/kg, QW*3, IV; cyclophosphamide, 40 mg/kg, QW*3, IV.
To test for in vivo activity, a Ewing tumor model was generated by implanting either A673 or SK-N-MC cells into mice. When the tumor size reached 150 mm3, the mice were grouped randomly and injected with YM155 by 21-day infusion with an osmotic pump. The tumor size was measured every three days.

cyclin D1 = assay: Western-blot analysis of cyclin D1 expression level; type: cell-based; conditions: A673 and SK-N-MC cells, 10 nM, 12-48 hrs; FIG. 5
Protocol: as §6

SK-N-MC xenograft = assay: Murine SK-N-MC xenograft Ewing tumor model; type: in vivo, mice

## 1-(2-Methoxyethyl)-2-methyl-4,9-dioxo-3-(pyrazin-2-ylmethyl)-4,9-dihydro-1H-naphtho[2,3-d] imidazolium bromide [YM155]
A673 cell line
  sensitivity to YM155 in in vitro cell proliferation assay: highly sensitive
SK-N-MC cell line
  sensitivity to YM155 in in vitro cell proliferation assay: highly sensitive
A673 cells
  apoptosis induction: induced strong apoptosis
SK-N-MC cells
  apoptosis induction: induced strong apoptosis
EWS-FLI1
  protein expression of EWS-FLI1: inhibited protein expression
MYC
  protein expression of MYC: inhibited protein expression
A673 xenograft; A673 xenograft in mice, 21-day infusion with osmotic pump, 3.5 or 2 mg/kg, FIGS. 4A-4B
  effect on tumor growth: strong inhibitory effect on tumor growth
A673 xenograft; A673 xenograft, YM155 2 mg/kg 21-day infusion vs ifosfamide 30 mg/kg QW*3 IV, etoposide 7.5 mg/kg QW*3 IP
  efficacy compared with ifosfamide/etoposide combination therapy: superior
A673 xenograft; A673 xenograft, YM155 3.5 mg/kg 21-day infusion vs vincristine 0.5 mg/kg QW*3 IV
  efficacy compared with vincristine standalone therapy: superior
A673 xenograft; A673 xenograft, YM155 3.5 mg/kg 21-day infusion vs vincristine 0.5, doxorubicin 3.3, cyclophosphamide 40 mg/kg QW*3 IV
  efficacy compared with vincristine/doxorubicin/cyclophosphamide triple therapy: superior
Cyclin D1
  protein expression of cyclin D1: inhibited protein expression
SK-N-MC xenograft; SK-N-MC xenograft in mice, 3.5 mg/kg, 21-day infusion with osmotic pump, FIG. 4C
  effect on tumor growth: strong inhibitory effect on tumor growth
SK-N-MC xenograft; SK-N-MC xenograft, YM155 3.5 mg/kg 21-day infusion vs vincristine 0.5 mg/kg QW*3 IV
  efficacy compared with vincristine standalone therapy: superior
SK-N-MC xenograft; SK-N-MC xenograft, YM155 3.5 mg/kg 21-day infusion vs vincristine 0.5, doxorubicin 3.3, cyclophosphamide 40 mg/kg QW*3 IV
  efficacy compared with vincristine/doxorubicin/cyclophosphamide triple therapy: superior
